Two compounds from ChEMBL document CHEMBL4196029, “New MD2 inhibitors derived from curcumin with improved anti-inflammatory activity” (Eur J Med Chem, 2018) can be followed below.

The source made the active and inactive calls. No cut-off for these calls is given here.

For assay [1], the system named is Rattus norvegicus. Briefly: Anti-inflammatory activity in Sprague-Dawley rat model of LPS-induced acute lung injury assessed as reduction in pulmonary edema at 20 mg/kg, po administered daily for 1 week followed by LPS addition at 30 mins post last dose measured after 6 hrs. The format is functional, organism-based.
Assay [2] has as its system Peritoneal macrophage. Briefly: Anti-inflammatory activity in C57BL/6 mouse primary peritoneal macrophages assessed as inhibition of LPS-induced IL-6 secretion at 2.5 uM preincubated for 30 mins followed by LPS addition measured after 24 hrs by ELISA relative to control. The format is functional. As to conditions: C57BL/6, Peritoneal macrophage. Background: An ELISA detects its analyte on a solid surface through an enzyme-linked reagent.

Assay [3] has as its target Interleukin-1 receptor-associated kinase 1 (Homo sapiens) (UniProt P51617). Briefly: Inhibition of recombinant human N-terminal GST-tagged IRAK1 (194 to 712 residues) expressed in baculovirus expression system at 1 uM after 1 hr by caliper mobility shift assay relative to control.
Assay [4] concerns Rattus norvegicus. Put plainly: Anti-inflammatory activity in Sprague-Dawley rat model of LPS-induced acute lung injury assessed as reduction in morphological changes in lungs at 20 mg/kg, po administered daily for 1 week followed by LPS addition at 30 mins post last dose measured after 6 hrs by hematoxylin and eosin staining based light microscopic assay. The format is functional, organism-based.

The subject of assay [5] is Rattus norvegicus. Briefly: Anti-inflammatory activity in Sprague-Dawley rat model of LPS-induced acute lung injury assessed as reduction in neutrophil extravasation in lungs by measuring tissue myeloperoxidase activity at 20 mg/kg, po administered daily for 1 week followed by LPS addition at 30 mins post last dose measured after 6 hrs by spectrophotometric method. The format is functional. Details: scale not given: the % may be the effect or the level left.

For assay [6], the system named is Rattus norvegicus. Put plainly: Anti-inflammatory activity in Sprague-Dawley rat model of LPS-induced acute lung injury assessed as reduction in TNFalpha level in BALF at 20 mg/kg, po administered daily for 1 week followed by LPS addition at 30 mins post last dose measured after 6 hrs by ELISA. The format is functional, organism-based.
The subject of assay [7] is Mus musculus. Briefly: Anti-inflammatory activity in C57BL/6 mouse model of LPS-induced sepsis assessed as survival at 10 mg/kg, iv administered 15 mins prior to LPS treatment measured for 7 days (reference value: 10 to 30%). The class given is functional. As to conditions: C57BL/6, iv.
The test system of assay [8] is Peritoneal macrophage. Put plainly: Anti-inflammatory activity in C57BL/6 mouse primary peritoneal macrophages assessed as inhibition of LPS-induced IL-6 secretion at 1 uM preincubated for 30 mins followed by LPS addition measured after 24 hrs by ELISA relative to control. Particulars: C57BL/6, Peritoneal macrophage. The format is functional.
For assay [9], the system named is Rattus norvegicus. Briefly: Anti-inflammatory activity in Sprague-Dawley rat model of LPS-induced acute lung injury assessed as reduction in macrophage mobilization to lungs by measuring tissue content of CD68 at 20 mg/kg, po administered daily for 1 week followed by LPS addition at 30 mins post last dose measured after 6 hrs by DAB staining based light microscopic method. The format is functional, organism-based.

Assay [10] has as its system Rattus norvegicus. Briefly: Anti-inflammatory activity in Sprague-Dawley rat model of LPS-induced acute lung injury assessed as reduction in IL-1beta mRNA level in lungs at 20 mg/kg, po administered daily for 1 week followed by LPS addition at 30 mins post last dose measured after 6 hrs by qRT-PCR method. The format is functional, organism-based. A general note: In qPCR the cycle at which signal appears reflects the starting amount.

Assay [11] relates to Rattus norvegicus. Put plainly: Anti-inflammatory activity in Sprague-Dawley rat model of LPS-induced acute lung injury assessed as reduction in ICAM1 mRNA level in lungs at 20 mg/kg, po administered daily for 1 week followed by LPS addition at 30 mins post last dose measured after 6 hrs by qRT-PCR method. The class given is functional, organism-based.
The target of assay [12] is Mitogen-activated protein kinase 1 (Homo sapiens) (UniProt P28482). Briefly: Inhibition of recombinant human full length N-terminal GST-tagged ERK2 (1 to 360 end residues) expressed in Escherichia coli at 1 uM after 1 hr by caliper mobility shift assay relative to control.
Assay [13] concerns Rattus norvegicus. Briefly: Anti-inflammatory activity in Sprague-Dawley rat model of LPS-induced acute lung injury assessed as reduction in TNFalpha level in serum at 20 mg/kg, po administered daily for 1 week followed by LPS addition at 30 mins post last dose measured after 6 hrs by ELISA. The class given is functional, organism-based.
In assay [14] the test system is Rattus norvegicus. Put plainly: Anti-inflammatory activity in Sprague-Dawley rat model of LPS-induced acute lung injury assessed as reduction in IL-6 mRNA level in lungs at 20 mg/kg, po administered daily for 1 week followed by LPS addition at 30 mins post last dose measured after 6 hrs by qRT-PCR method. The format is functional, organism-based.
Assay [15] has as its system Rattus norvegicus. Briefly: Anti-inflammatory activity in Sprague-Dawley rat model of LPS-induced acute lung injury assessed as reduction in VCAM1 mRNA level in lungs at 20 mg/kg, po administered daily for 1 week followed by LPS addition at 30 mins post last dose measured after 6 hrs by qRT-PCR method. The format is functional, organism-based.
The test system of assay [16] is Rattus norvegicus. Briefly: Anti-inflammatory activity in Sprague-Dawley rat model of LPS-induced acute lung injury assessed as reduction in TNFalpha mRNA level in lungs at 20 mg/kg, po administered daily for 1 week followed by LPS addition at 30 mins post last dose measured after 6 hrs by qRT-PCR method. The class given is functional, organism-based.

Mitogen-activated protein kinase 1 (Homo sapiens), sequence (P28482 whole entry): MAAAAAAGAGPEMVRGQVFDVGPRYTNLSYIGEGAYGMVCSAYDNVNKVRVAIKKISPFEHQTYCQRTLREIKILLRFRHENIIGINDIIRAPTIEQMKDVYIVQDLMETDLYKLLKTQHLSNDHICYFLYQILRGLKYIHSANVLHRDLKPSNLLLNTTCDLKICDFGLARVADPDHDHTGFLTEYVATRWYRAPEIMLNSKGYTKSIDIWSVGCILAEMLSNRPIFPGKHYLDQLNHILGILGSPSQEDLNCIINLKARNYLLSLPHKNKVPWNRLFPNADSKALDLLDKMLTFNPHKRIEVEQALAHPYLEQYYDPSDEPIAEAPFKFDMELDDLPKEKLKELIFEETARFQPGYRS
Interleukin-1 receptor-associated kinase 1 (Homo sapiens), sequence (P51617 whole entry, looked up, the tested form may be a part): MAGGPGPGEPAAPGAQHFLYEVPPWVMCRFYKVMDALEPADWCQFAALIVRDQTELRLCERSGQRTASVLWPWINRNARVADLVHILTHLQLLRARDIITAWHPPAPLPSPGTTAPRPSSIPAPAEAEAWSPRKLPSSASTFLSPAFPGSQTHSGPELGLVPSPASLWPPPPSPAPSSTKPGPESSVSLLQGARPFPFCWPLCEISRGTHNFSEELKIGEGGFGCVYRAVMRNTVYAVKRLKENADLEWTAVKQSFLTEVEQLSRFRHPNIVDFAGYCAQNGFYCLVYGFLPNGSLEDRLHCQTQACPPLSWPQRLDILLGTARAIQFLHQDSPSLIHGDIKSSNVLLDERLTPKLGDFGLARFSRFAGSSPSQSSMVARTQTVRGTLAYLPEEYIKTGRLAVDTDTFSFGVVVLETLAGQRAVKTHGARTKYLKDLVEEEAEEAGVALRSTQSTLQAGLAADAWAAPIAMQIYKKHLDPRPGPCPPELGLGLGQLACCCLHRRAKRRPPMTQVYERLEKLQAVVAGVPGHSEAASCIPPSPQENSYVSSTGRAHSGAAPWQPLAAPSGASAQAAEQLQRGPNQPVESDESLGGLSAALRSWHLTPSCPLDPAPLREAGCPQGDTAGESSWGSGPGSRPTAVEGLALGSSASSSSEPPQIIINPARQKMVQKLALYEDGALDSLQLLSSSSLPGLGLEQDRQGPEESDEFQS

Consider `COc1cc(/C=C2\CN(C)C/C(=C\c3cc(OC)c(OC)c(OC)c3)C2=O)cc(OC)c1OC`, for which the result in assay [1], in assay [4], in [6], in assay [9], in assay [10] and in assay [11] was Active. For the same compound, the result in assay [13], in assay [14], in [15] and in [16] was Active. In addition, in [2], the inhibition (as a rule, the share of the control response that was lost under treatment) at 2.5 µM is more than 50%. The inhibition in [3] amounted to 8.7%; in assay [12], 13.3%. Further, in assay [5], the Activity is on record as 40%. In addition, the survival at 10 mg/kg in assay [7] is 90%. For the same compound, in [8], the inhibition at 1 µM is more than 90%.

For the compound `COc1cc(/C=C2\COC/C(=C\c3cc(OC)c(OC)c(OC)c3)C2=O)cc(OC)c1OC`, the result in assay [1], in assay [4], in [9], in [14] and in assay [16] was Active. For the same compound, the inhibition at 2.5 µM in assay [2] was more than 50%. Besides, the inhibition in assay [3] worked out at 8.7%; in assay [12], 10.4%. The Activity in [5] was found to be 40%. Further, in assay [7], the survival at 10 mg/kg is 70%. Moreover, the inhibition at 1 µM in assay [8] was more than 90%.
